Patent publication EP2524912A1, “Amine derivatives” (Bionomics Limited, priority 2011, dated 2012)

Target: human Kv1.3 (Homo sapiens, UniProt P22001)
Assay: Kv1.3 patch-clamp electrophysiology (planar electrode, whole-cell, steady state current)
Type: cell-based
Conditions: CHO/Kv1.3 stable cell line; steady state current amplitude at end of 500 ms depolarising pulse to +40 mV; values given as ranges; read-out: IC50 (Kv1.3 ephys steady state)
Procedure: The inhibition data shown for the compounds of the list below was calculated using the steady state current amplitude at the end of the depolarising pulse in patch clamp evaluations (as described in the Pharmacology Example 2).
The human Kv1.3 construct (Kv1.3/pENTR, clone IOH61428) was purchased from Invitrogen and subcloned into pcDNA 3.2-DEST (Invitrogen). CHO-K1 cells obtained from ATCC (cat #CCL-61) were transfected with the Kv1.3/pcDNA3.2DEST construct and a stable cell line was developed through two rounds of limiting dilution under G418 selection. Positive (Kv1.3 expressing) clones were identified using electrophysiology.
CHO/Kv1.x stable cell lines were grown in a humidified atmosphere at 37 °C, 5% CO2 in T-75 flasks containing F12 Kaighn's medium supplemented with 10% fetal calf serum, 2 mM L-glutamine, 100 units/ml penicillin, 100 µg/ml streptomycin and 500 µg/ml G418 (to maintain selection). CHO/Kv1.1 and CHO/Kv1.5 cells used for patching were transferred to 33 °C for 48 hours prior to use.
Kv1.x currents were measured using a planar electrode version (Nanion Technologies GMBH) of the patch-clamp technique. Whole-cell Kv1.x current transients were evoked by 500 ms depolarising voltage pulses to +40 mV from a holding potential of -80 mV applied at 10 s intervals for Kv1.1 and Kv1.5 and at 30 s intervals for Kv1.3 to allow adequate time for recovery from inactivation. Cells were continuously bathed in a buffered saline solution containing (mM): 160 NaCl, 4.5 KCI, 2 CaCl2, 1 MgCl2, 5 glucose, 10 HEPES, pH 7.4, 290-310 mOsm.Kg^-1. The internal (pipette) solution contained (mM): 10 NaCl, 70 KF, 75 KCI, 2 MgCl2, 10 HEPES, 10 EGTA, pH 7.2, 290-310 mOsm.Kg^-1. Series resistance compensation (60-80%) was applied when the peak current amplitude exceeded 2 nA.
Compounds were initially dissolved in DMSO to 10 mM. After further dilution in DMSO, compounds were finally diluted in bath solution 1/200 (to give a final DMSO concentration of 0.5%) and applied directly to the recording chamber. Compounds were added at increasing concentrations allowing ample time for steady state block to be achieved between each concentration. Each compound was tested at 5-6 different concentrations on 2-3 cells. IC50 values can be determined by fitting the average normalised reduction of either the current integral or the steady state current amplitude at the end of the depolarising pulse obtained at each compound concentration to the Hill equation. The IC50 data reported herein is based on the steady state calculation.

Chain of human Kv1.3 (P22001 whole entry): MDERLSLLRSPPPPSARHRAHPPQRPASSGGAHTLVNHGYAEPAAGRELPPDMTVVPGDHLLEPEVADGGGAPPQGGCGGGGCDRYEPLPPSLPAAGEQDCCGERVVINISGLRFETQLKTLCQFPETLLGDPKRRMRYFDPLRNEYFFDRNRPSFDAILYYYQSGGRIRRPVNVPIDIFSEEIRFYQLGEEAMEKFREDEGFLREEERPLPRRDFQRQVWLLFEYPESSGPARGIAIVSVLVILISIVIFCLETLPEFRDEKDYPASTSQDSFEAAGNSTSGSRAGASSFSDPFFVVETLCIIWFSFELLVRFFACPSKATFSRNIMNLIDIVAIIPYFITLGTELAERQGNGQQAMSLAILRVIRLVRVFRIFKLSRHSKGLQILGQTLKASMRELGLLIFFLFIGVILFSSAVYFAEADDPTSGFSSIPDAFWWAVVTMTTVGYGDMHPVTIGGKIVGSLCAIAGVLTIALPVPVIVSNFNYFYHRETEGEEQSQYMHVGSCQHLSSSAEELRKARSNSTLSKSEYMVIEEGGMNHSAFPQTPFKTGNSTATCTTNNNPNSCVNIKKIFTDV

COc1ccc(C(C2CC2)N(Cc2ccccn2)C(=O)CC(C)c2ccc(F)cc2)cc1 (stereo not shown) [Example 1, N-[cyclopropyl(4-methoxyphenyl)methyl]-3-(4-fluorophenyl)-N-(pyridin-2-ylmethyl)butanamide]
IC50: < 50 nM

COc1ccc(C(C2CC2)N(Cc2ccccn2)C(=O)CCc2ccc(F)cc2)cc1 (stereo not shown) [Example 2, N-[cyclopropyl(4-methoxyphenyl)methyl]-3-(4-fluorophenyl)-N-(pyridin-2-ylmethyl)propanamide]
IC50: 50 to 200 nM

O=C(CCc1ccc(F)cc1)N(Cc1ccccn1)C(c1ccc(Cl)cc1)C1CC1 (stereo not shown) [Example 9, N-[cyclopropyl(4-chlorophenyl)methyl]-3-(4-fluorophenyl)-N-(pyridin-2-ylmethyl)propanamide]
IC50: 50 to 200 nM

O=C(C1CC1c1ccc(F)cc1)N(Cc1ccccn1)C(c1ccc(Cl)cc1)C1CC1 (stereo not shown) [Example 10, N-[(4-chlorophenyl)(cyclopropyl)methyl]-2-(4-fluorophenyl)-N-(pyridin-2-ylmethyl)cyclopropanecarboxamide]
IC50: < 50 nM

O=C(CS(=O)(=O)c1ccc(F)cc1)N(Cc1ccccn1)C(c1ccccc1)C1CC1 (stereo not shown) [Example 15, N-[cyclopropyl(phenyl)methyl]-2-[(4-fluorophenyl)sulfonyl]-N-(pyridin-2-ylmethyl)acetamide]
IC50: 200 to 1000 nM

CC(C)C(c1ccccc1)N(Cc1ccccn1)C(=O)CCc1ccc(F)cc1 (stereo not shown) [Example 20, 3-(4-fluorophenyl)-N-(2-methyl-1-phenylpropyl)-N-(pyridin-2-ylmethyl)propanamide]
IC50: 50 to 200 nM

O=C(CCc1ccc(F)cc1)N(Cc1ccccn1)C(c1ccc(F)cc1)C1CCCC1 (stereo not shown) [Example 21, N-[cyclopentyl(4-fluorophenyl)methyl]-3-(4-fluorophenyl)-N-(pyridin-2-ylmethyl)propanamide]
IC50: 50 to 200 nM

CCC(CC)C(c1ccccc1)N(Cc1ccccn1)C(=O)CCc1ccc(F)cc1 (stereo not shown) [Example 22, N-(2-ethyl-1-phenylbutyl)-3-(4-fluorophenyl)-N-(pyridin-2-ylmethyl)propanamide]
IC50: 200 to 1000 nM

O=C(CCc1ccc(F)cc1)N(Cc1ccccn1)C(c1ccccc1)C1CCCC1 (stereo not shown) [Example 23, N-[cyclopentyl(phenyl)methyl]-3-(4-fluorophenyl)-N-(pyridin-2-ylmethyl)propanamide]
IC50: 50 to 200 nM

CCC(c1ccc2c(c1)CC(C)O2)N(Cc1ccccn1)C(=O)CCc1ccc(F)cc1 (stereo not shown) [Example 24, 3-(4-fluorophenyl)-N-[1-(2-methyl-2,3-dihydro-1-benzofuran-5-yl)propyl]-N-(pyridin-2-ylmethyl)propanamide]
IC50: 50 to 200 nM

Cc1cnc(C)c(OCCN(C(=O)CC(C)c2ccc(F)cc2)C(C)c2ccc3c(c2)CCC3)n1 (stereo not shown) [Example 41, N-[1-(2,3-dihydro-1H-inden-5-yl)ethyl]-3-(4-fluorophenyl)-N-[2-(3,6-dimethylpyrazin-2-yloxy)ethyl]butanamide]
IC50: 50 to 200 nM

CC(c1ccccc1)N(Cc1ccccn1)C(=O)CCc1ccc(F)cc1 (stereo not shown) [Example 42, 3-(4-fluorophenyl)-N-(1-phenylethyl)-N-(pyridin-2-ylmethyl)propanamide]
IC50: 200 to 1000 nM

COc1ccc(CN(C(=O)CCc2ccc(F)cc2)C(C)c2ccccc2)cn1 (stereo not shown) [Example 43, 3-(4-fluorophenyl)-N-(1-phenylethyl)-N-(6-methoxypyridin-3-ylmethyl)propanamide]
IC50: 200 to 1000 nM

CC(CC(=O)N(CCOc1cccc(Cl)n1)C(C)c1ccc2c(c1)CCC2)c1ccc(F)cc1 (stereo not shown) [Example 44, N-[1-(2,3-dihydro-1H-inden-5-yl)ethyl]-3-(4-fluorophenyl)-N-[2-(6-chloropyridin-2-yloxy)ethyl]butanamide]
IC50: 200 to 1000 nM

CC(c1ccc2c(c1)CCC2)N(CCOc1cccc(Cl)n1)C(=O)CCc1ccc(F)cc1 (stereo not shown) [Example 45, N-[1-(2,3-dihydro-1H-inden-5-yl)ethyl]-3-(4-fluorophenyl)-N-[2-(6-chloropyridin-2-yloxy)ethyl]propanamide]
IC50: 200 to 1000 nM

CC(CC(=O)N(CCOc1ccccn1)C(C)c1ccc2c(c1)CCC2)c1ccc(F)cc1 (stereo not shown) [Example 46, N-[1-(2,3-dihydro-1H-inden-5-yl)ethyl]-3-(4-fluorophenyl)-N-[2-(pyridin-2-yloxy)ethyl]butanamide]
IC50: 50 to 200 nM

CC(c1ccc2c(c1)CCC2)N(CCOc1ccccn1)C(=O)CCc1ccc(F)cc1 (stereo not shown) [Example 47, N-[1-(2,3-dihydro-1H-inden-5-yl)ethyl]-3-(4-fluorophenyl)-N-[2-(pyridin-2-yloxy)ethyl]propanamide]
IC50: 50 to 200 nM

CC(c1ccc2c(c1)CCC2)N(CCOc1ccccn1)C(=O)C1(c2ccc(Cl)cc2)CCC1 (stereo not shown) [Example 50, 1-(4-chlorophenyl)-N-[1-(2,3-dihydro-1H-inden-5-yl)ethyl]-N-[2-(pyridin-2-yloxy)ethyl]cyclobutanecarboxamide]
IC50: 200 to 1000 nM

CC(c1ccc2c(c1)CCC2)N(CCOc1ccccn1)C(=O)CCCc1ccccc1 (stereo not shown) [Example 51, N-[1-(2,3-dihydro-1H-inden-5-yl)ethyl]-4-phenyl-N-[2-(pyridin-2-yloxy)ethyl]butanamide]
IC50: 50 to 200 nM

Cc1cccc(OCCN(C(=O)CC(C)c2ccc(F)cc2)C(C)c2ccc3c(c2)CCC3)n1 (stereo not shown) [Example 52, N-[1-(2,3-dihydro-1H-inden-5-yl)ethyl]-3-(4-fluorophenyl)-N-[2-(6-methylpyridin-2-yloxv)ethyl]butanamide]
IC50: 200 to 1000 nM

Cc1cccc(OCCN(C(=O)CCc2ccc(F)cc2)C(C)c2ccc3c(c2)CCC3)n1 (stereo not shown) [Example 53, N-[1-(2,3-dihydro-1H-inden-5-yl)ethyl]-3-(4-fluorophenyl)-N-[2-(6-methylpyridin-2-yloxy)ethyl]propanamide]
IC50: 50 to 200 nM

CC(c1ccc2c(c1)SC(C)(C)O2)N(Cc1ccccn1)C(=O)CCc1ccc(F)cc1 (stereo not shown) [Example 54, N-[1-(2,2-dimethyl-1,3-benzoxathiol-5-yl)ethyl]-3-(4-fluorophenyl)-N-(pyridin-2-ylmethyl)propanamide]
IC50: 200 to 1000 nM

COCc1ccccc1C(C)N(Cc1ccccn1)C(=O)CCc1ccc(F)cc1 (stereo not shown) [Example 57, 3-(4-fluorophenyl)-N-{1-[2-(methoxymethyl)phenyl]ethyl}-N-(pyridin-2-ylmethyl)propanamide]
IC50: 200 to 1000 nM

CC(c1ccc2c(c1)SC(C)(C)O2)N(Cc1ccccn1)C(=O)CCc1cccc(C(F)(F)F)c1 (stereo not shown) [Example 62, N-[1-(2,2-dimethyl-1,3-benzoxathiol-5-yl)ethyl]-N-(pyridin-2-ylmethyl)-3-[3-(trifluoromethyl)phenyl]propanamide]
IC50: 200 to 1000 nM

CC(c1ccc2c(c1)[S+]([O-])C(C)(C)O2)N(Cc1ccccn1)C(=O)CCc1cccc(C(F)(F)F)c1 (stereo not shown) [Example 63, N-[1-(2,2-dimethyl-3-oxido-1,3-benzoxathiol-5-yl)ethyl]-N-(pyridin-2-ylmethyl)-3-[3-(trifluoromethyl)phenyl]propanamide]
IC50: > 1000 nM

COCc1ccccc1C(C)N(Cc1ccccn1)C(=O)CS(=O)(=O)c1ccc(F)cc1 (stereo not shown) [Example 65, 2-[(4-fluorophenyl)sulfonyl]-N-{1-[2-(methoxymethyl)phenyl]ethyl}-N-(pyridin-2-ylmethyl)acetamide]
IC50: > 1000 nM

COCc1ccccc1C(C)N(Cc1ccccn1)C(=O)C1(S(=O)(=O)c2ccc(F)cc2)CC1 (stereo not shown) [Example 66, 1-[(4-fluorophenyl)sulfonyl]-N-{1-[2-(methoxymethyl)phenyl]ethyl}-N-(pyridin-2-ylmethyl)cyclopropanecarboxamide]
IC50: 50 to 200 nM

CC(c1ccc2c(c1)CCC2)N(Cc1ccccn1)C(=O)CCc1ccc(F)cc1 (stereo not shown) [Example 67, N-[1-(2,3-dihydro-1H-inden-5-yl)ethyl]-3-(4-fluorophenyl)-N-(pyridin-2-ylmethyl)propanamide]
IC50: 200 to 1000 nM

CC(CCN(C(=O)c1cccnc1)C(C)c1ccc2c(c1)CCC2)c1ccc(F)cc1 (stereo not shown) [Example 68, N-[1-(2,3-dihydro-1H-inden-5-yl)ethyl]-N-[3-(4-fluorophenyl)butyl]pyridine-3-carboxamide]
IC50: 200 to 1000 nM

CC(CCN(C(=O)CN1CCCC(F)(F)C1)C(C)c1ccc2c(c1)CCC2)c1ccc(F)cc1 (stereo not shown) [Example 69]
IC50: 50 to 200 nM

CC(CCN(C(=O)CN1CCC(F)CC1)C(C)c1ccc2c(c1)CCC2)c1ccc(F)cc1 (stereo not shown) [Example 70, N-[1-(2,3-dihydro-1H-inden-5-yl)ethyl]-N-[3-(4-fluorophenyl)butyl]-2-(4-fluoropiperidin-1-yl)acetamide]
IC50: 50 to 200 nM
